Data on ten compounds can be found in patent US20130156753A1 (UNIVERSITY OF ROCHESTER, priority 2010, published 2013).

No end group written: not given here.

Data set [1] concerns HDAC5 nuclear export. Description: PE-induced HDAC5 nuclear export in neonatal rat ventricular cardiomyocytes (NRVMs). Type of data set: cell-based. As for the experimental part: (§1) A, B, Cos7 cells were co-transfected with expression vectors encoding GFP-tagged HDAC5 (GFP-HDAC5) and constitutively active protein kinases as indicated, and then exposed to phorbol-12-myristate-13-acetate (PMA, […]) for 3 hours. […] A-F, The cells were fixed and the subcellular localization of GFP-HDAC5 was visualized by fluorescence microscopy.
The cells were fixed and GFP-HDAC5 localization was analyzed by fluorescence microscopy. α-actinin was detected by immunofluorescence using an antibody against α-actinin and a fluorescein-conjugated secondary antibody. The nuclei were stained with DAPI.
The cells were fixed and GFP-HDAC5 localization was analyzed by fluorescence microscopy. α-actinin was detected by immunofluorescence using an antibody against α-actinin and a fluorescein-conjugated secondary antibody. The nuclei were stained with DAPI. B, PKA expression in cell lysates were determined by Western blot using PKA antibody.
The cells were fixed and endogenous HDAC5 localization was analyzed by fluorescence microscopy. HDAC5 and α-actinin was detected by immunocytochemistry with antibody against HDAC5 and α-actinin.
The cells were fixed and GFP-HDAC5 subcellular localization was analyzed by fluorescence microscopy and stained with an α-actinin antibody and DAPI.
Cos7 cells were grown in Dulbecco's Modified Eagle's Medium (DMEM) supplemented with fetal bovine serum (10%), 1-glutamine and penicillin/streptomycin. Primary cultures of neonatal rat cardiac ventricular myocytes (NRVMs) from 1- to 2-day-old Sprague-Dawley rats (Charles River Laboratories) were prepared. In brief, NRVMs were dispersed from the ventricles by digestion with collagenase type II (Worthington). Cells were cultured in Dulbecco's modified Eagle's medium (DMEM) supplemented with 1,000 mg/L D-glucose, L-glutamine, and 110 mg/L sodium pyruvate (GIBCO), fetal bovine serum (10%), and penicillin/streptomycin at 37° C. in a 5% CO2 humidified atmosphere for 2-3 days. For inducer or inhibitor studies, cells were pretreated with various inducers or inhibitors for 30 min in serum-free medium. Primary cultures of adult rat cardiomyocytes were prepared from 200-250g male Sprague-Dawley rats. Briefly, rats were anesthetized, hearts excised and placed in Krebs buffer and perfused and digested with endotoxin-free collagenase II (Worthington). This protocol typically yielded approximately 4×10^6 cells per heart, with ˜85% surviving, rod-shaped Ca2+-tolerant cells. Myocytes were allowed to attach to 20 μg/ml laminin coated plates in Modified Eagle Medium (MEM) containing 2.5% FBS, 25 mmol/L HEPES, 5 mmol/L taurine, 2 mmol/L carnitine, 2 mmol/L creatinine, 100 IU/ml penicillin, and 100 μg/ml streptomycin for 2 hrs before replacing with serum-free MEM containing 25 mmol/L HEPES, 5 mmol/L taurine, 2 mmol/L carnitine, 2 mmol/L creatinine, 100 IU/ml penicillin, and 100 μg/ml streptomycin.
Adenoviruses encoding Flag-tagged HDAC5 wild-type (WT), GFP-tagged HDAC5-WT, and YFP-tagged HDAC7-WT were generated as described previously (Ha C H, et al. (2008) Protein Kinase D-dependent Phosphorylation and Nuclear Export of Histone Deacetylase 5 Mediates Vascular Endothelial Growth Factor-induced Gene Expression and Angiogenesis. J Biol Chem 283(21):14590-14599; Ha C H et al. (2008) VEGF stimulates HDAC7 phosphorylation and cytoplasmic accumulation modulating matrix metalloproteinase expression and angiogenesis. Arterioscler Thromb Vasc Biol 28(10):1782-1788). Adenovirus expressing GFP-tagged HDAC5-S280A mutant, GFP-tagged HDAC5-S280D mutant and Flag-tagged HDAC5-S280A mutant were generated by using ViraPower Adenoviral Expression System (Invitrogen) according to the manufacturer's protocol. Adenovirus containing β-galactosidase (LacZ) or GFP was used as a control. […]

Data set [2] deals with HDAC5 nuclear export. Put plainly: PMA-induced GFP-HDAC5 nuclear export in Cos7 cells (fluorescence microscopy). It counts as cell-based. Particulars: for PMA-induced HDAC5 nuclear export: GFP-HDAC5-WT, pretreatment, then PMA for 3 hours. On the procedure: as §1
C, D, Cos7 cells were transfected with GFP-HDAC5-WT or GFP-HDAC5-S280D and then exposed to PMA for 3 hours. GFP-HDAC5-S280D but not GFP-HDAC5-WT was resistant to PMA-induced nuclear export. *, p<0.05 versus without PMA, n=4. E, F, Cos7 cells were transfected with Flag-HDAC5-WT or Flag-HDAC5-S280A mutant, and then pretreated with forskolin followed with the exposure to PMA. Phosphorylation of HDAC5 in cell lysates was analyzed by immunoblotting with phospho-specific HDAC5 antibodies that recognize the HDAC5 phosphorylated at Ser259 (E) and Ser498 (F). G, H, Cos7 cells were transfected with Flag-HDAC5-WT, Flag-HDAC5-S280A or Flag-HDAC5-S280D, and then pretreated with forskolin, followed with the exposure to PMA. Coimmunoprecipitation of Flag-HDAC5 in cell lysates and then immunoblotting with anti-14-3-3 beta and anti-Flag antibodies in immunoprecipitates were performed. 14-3-3 in total cell lysates (5% of the input) was determined by immunoblotting with anti-14-3-3 antibodies. Representative blots are shown, n=3.
The cells were fixed and GFP-HDAC5 localization was analyzed by fluorescence microscopy.
For analysis of GFP-HDAC5 subcellular localization in NRVMs and Cos7 cells, cells were plated in the presence of adenovirus (multiplicity of infection, 50 to 100) on 35 mm dishes containing DMEM plus 10% FBS as previously described (Vega R B, et al. (2004) Protein kinases C and D mediate agonist-dependent cardiac hypertrophy through nuclear export of histone deacetylase 5. Mol Cell Biol 24(19):8374-8385).
(§2) After 24 hour culture, cells were maintained in serum-free DMEM medium for additional 24 hours, and then exposed to various inducers or inhibitors (for 30 minutes) prior to PE or PMA stimulation for indicated times. The cells were washed with PBS and fixed with 3.7% formaldehyde in PBS. Images were captured at a magnification of ×60, using a fluorescence microscope (Olympus BX51) equipped with a digital camera and Spot software system (RT Color Diagnostic Instruments). For analysis of the myocyte marker, sarcomeric α-actinin antibody and DAPI in neonatal cardiomyocyte, immunocytochemistry were performed according to a standard protocol. For subcellular localization of endogenous HDAC5 in cardiomyocyes, we fixed cells and used the detergent Saponin (Sigma, 84510) to make cells permeable, and then performed immunocytochemistry with anti-HDAC5 antibody (Santa Cruz, sc-11419). For subcellular localization of HDAC5, total around 200 cells were counted in each condition. For cardiomyocyte size, total myocyte surface areas were calculated using NIH Image J software, and expressed as the average of 100 randomly selected cells per condition.

In another data set the test system is T1, GST-HDAC5-WT (273-286).
T1 sequence: KVAERRSSPLLRRK

A further data set has as its system NRVMs. Put plainly: Cardiomyocyte hypertrophy (cell size, α-actinin immunostaining) in NRVMs. It counts as cell-based, rat.
From the text: A-H, Cardiomyocyte size was detected by immunostaining with anti-α-actinin antibody. […] The cells were fixed and analyzed for GFP-HDAC5 localization, α-actinin staining and nuclear DAPI staining *, p<0.05 versus without PE; #, p<0.05 versus with PE alone. I, Schematic model for PKA-dependent regulation of HDAC5 subcellular localization and gene transcription.
Cardiomyocyte protein marker α-actinin was detected by immunofluorescence using antibody against α-actinin and fluorescein-conjugated secondary antibody.
as §2

For data set [3], the system named is ANF, β-MHC, α-SMA expression. Put plainly: RT-PCR of cardiac fetal gene expression in NRVMs. Type of data set: cell-based, rat. Particulars: NRVMs with GFP-HDAC5-WT; PE 24 hours. On the procedure:
The mRNA was extracted from the cell lysates and then RT-PCR with the primers for ANF, β-MHC, α-SMA, and GADPH (internal control) was performed. *, p<0.05 versus PE+Ad-GFP; #, p<0.05 versus PE+GFP-HDAC5-WT, n=4.
The mRNA was extracted from the cell lysates, and quantitative RT-PCR with the primers for ANF and GADPH (internal control) were performed as described in the Examples. Quantitative data are shown (n=4).
Total RNA was isolated from NRVM using TRIzol (Invitrogen Corp.). Firststrand cDNA was synthesized with the SuperScript Preamplification System (Gibco-BRL). cDNA was amplified by PCR for 30 cycle (Applied Biosystem) as described previously (4, 5). Rat GAPDH served as an internal control. The following oligonucleotide primers were used in this study: rat ANF, sense 5′-[…]-3′ (SEQ ID NO:11) and antisense 5′-[…]-3′(SEQ ID NO:12) rat α-SMA, sense 5′-[…]-3′ (SEQ ID NO:13) and antisense 5′-[…]-3′ (SEQ ID NO:14); rat β-MHC (myosin heavy chain), sense 5′-[…]-3′ (SEQ ID NO:15) and antisense 5′-[…]-3′ (SEQ ID NO:16); rat GAPDH, sense 5′-[…]-3′ (SEQ ID NO:17) and antisense 5′-[…]-3′ (SEQ ID NO:18). Experiments were repeated three times.

A further data set concerns HDAC7 nuclear export. Description: PMA-induced YFP-HDAC7 nuclear export in Cos7 cells. It counts as cell-based.
The mark [4] stands for this setting: NRVMs with GFP-HDAC5-WT, PE 24 hours.

Sequence of Myc-HDAC5 AA 1-360 (chain, as listed by the source): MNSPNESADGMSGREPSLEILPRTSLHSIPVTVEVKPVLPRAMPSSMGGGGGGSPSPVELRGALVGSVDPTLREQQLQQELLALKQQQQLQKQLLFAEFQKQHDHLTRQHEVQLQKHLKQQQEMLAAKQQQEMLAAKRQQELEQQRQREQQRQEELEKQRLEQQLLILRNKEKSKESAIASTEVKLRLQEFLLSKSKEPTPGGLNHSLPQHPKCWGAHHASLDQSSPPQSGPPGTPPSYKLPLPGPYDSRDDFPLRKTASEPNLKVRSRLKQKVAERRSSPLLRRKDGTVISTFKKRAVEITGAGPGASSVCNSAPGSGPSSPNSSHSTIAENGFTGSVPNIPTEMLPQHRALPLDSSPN
Experimental for HDAC7 nuclear export: Transient transfection of plasmid DNA was performed using lipofectamine 2000 (Invitrogene, Carlsbad, Calif.) and 0.5 μg of the indicated plasmids.

`CC(C)NCC(O)c1ccc(O)c(O)c1` (stereo not shown) [isoproterenol]: the “PE-stimulated HDAC5 nuclear export” value with HDAC5 nuclear export [1] (NRVMs, adenoviral GFP-HDAC5, 30 min pretreatment, PE 10 μM 3 hours) is “markedly inhibited PE-stimulated HDAC5 nuclear export”. In addition, the “PMA-induced HDAC5 nuclear export” value with HDAC5 nuclear export [2] is on record as “inhibited HDAC5 nuclear export”.
For the compound “purified catalytic subunit of protein kinase A (PKA-CA, Calbiochem)”, the “in vitro kinase assay, 32P autoradiography” value was “recombinant PKA-CA phosphorylated the GST-tagged peptide of HDAC5-WT” with GST-HDAC5-WT (273-286) and “the similar phosphorylation by PKA-CA in an in vitro kinase assay (FIG. 14) was also detected” with Myc-HDAC5 AA 1-360.
As for `CCCC(=O)Nc1nc2c(ncn2[C@@H]2O[C@@H]3COP(=O)(O)O[C@H]3[C@H]2OC(=O)CCC)c(=O)[nH]1` [cGMP, DibutyrylcGMP], the “PMA-induced HDAC5 nuclear export” value in the data set on HDAC5 nuclear export [2] is recorded as “did not block HDAC5 nuclear export”.
In the case of “PKA Inhibitor 14-22 Amide (SGRTGRRNA-NH2; UniProt P61925 14-22, looked up, fragment) [PKI]”, the “effect on the inhibitory effects of cAMP on PE-induced HDAC5 nuclear export” value in the data set on HDAC5 nuclear export [1] (NRVMs, GFP-HDAC5, PKA inhibition, then cAMP, PE 3 hours) was “abolished the inhibitory effects of cAMP on PE-induced HDAC5 nuclear export”. Further, the “effect on the inhibition of HDAC5 nuclear export by forskolin and cAMP” value in the data set on HDAC5 nuclear export [2] (GFP-HDAC5, PKI pretreatment, then forskolin or cAMP, then PMA 3 hours) was “abolished the inhibition of forskolin and cAMP on HDAC5 nuclear export”.
Regarding `CCCCCC[C@@H]([C@@H](C)O)n1cnc2c(N)ncnc21` (racemic) [EHNA, erythro-9-(2-hydroxy-3-nonyl)adenine], the “PMA-induced HDAC5 nuclear export” value in the data set on HDAC5 nuclear export [2] is “inhibited HDAC5 nuclear export”.
Turning to `COc1ccc(C2CNC(=O)C2)cc1OC1CCCC1` (stereo not shown) [rolipram], the “PE/Angiotensin II-induced cardiomyocyte hypertrophy” value with NRVMs (NRVMs, forskolin 10 μM, cAMP 500 μM, Rolipram 10 μM 30 min, PE or Angiotensin II 24 hours) is “inhibit PE/Angiotensin II-induced cardiomyocyte hypertrophy”. In addition, in the data set with HDAC5 nuclear export [2], the “PMA-induced HDAC5 nuclear export” value is “inhibited HDAC5 nuclear export”.
In the case of `CNC[C@H](O)c1cccc(O)c1` [PE, R-(−)-Phenylephrine], in the data set with HDAC5 nuclear export [1] (setting [4]), the “HDAC5 localization (stimulus alone)” value was “HDAC5 nuclear export”. In addition, the “cell size (stimulus alone)” value in the data set with NRVMs (setting [4]) is listed as “increased cell size”. The “expression of ANF, β-MHC and α-SMA (stimulus alone)” value in data set [3] was “significantly increased expression of ANF, β-MHC and α-SMA”.
In the case of `CN(C(=O)CCCOc1ccc2[nH]c(=O)ccc2c1)C1CCCCC1` [cilostamide], in the data set with HDAC5 nuclear export [2], the “PMA-induced HDAC5 nuclear export” value is on record as “did not block HDAC5 nuclear export”.
In the case of `C=C[C@@]1(C)CC(=O)[C@]2(O)[C@@]3(C)[C@@H](O)CCC(C)(C)[C@@H]3[C@H](O)[C@H](OC(C)=O)[C@@]2(C)O1` [forskolin], the “PMA-induced nuclear export of YFP-HDAC7 (WT)” value with HDAC7 nuclear export is “no inhibitory effect”.
For `CC(C)Cn1c(=O)n(C)c(=O)c2[nH]cnc21` [IBMX, 3-isobutyl-1-methylxanthine], the “PMA-induced HDAC5 nuclear export” value with HDAC5 nuclear export [2] is “inhibited HDAC5 nuclear export”.
